Results reported in patent US20100029620A1, “SUBSTITUTED TRIAZOLINE, TETRAZOLONE AND IMIDAZOLONE DERIVATIVES FOR USE AS A MEDICINE” (JANSSEN PHARMACEUTICA N.V., priority 2004, published 2010).

What was measured:
[1] = target: T1, human adrenergic-α2A receptor (Homo sapiens, UniProt P08913); test: Radioligand binding experiment for α2A-adrenoceptor ([3H]-raulwolscine competition, CHO cell membranes); conditions: [3H]raulwolscine 1 nM, membranes of CHO cells transfected with human α2A receptor; read-out: pIC50 α2A (converted)
T1 construct: expressed in transfected cells; membrane preparation
T1 sequence (P08913 1-465): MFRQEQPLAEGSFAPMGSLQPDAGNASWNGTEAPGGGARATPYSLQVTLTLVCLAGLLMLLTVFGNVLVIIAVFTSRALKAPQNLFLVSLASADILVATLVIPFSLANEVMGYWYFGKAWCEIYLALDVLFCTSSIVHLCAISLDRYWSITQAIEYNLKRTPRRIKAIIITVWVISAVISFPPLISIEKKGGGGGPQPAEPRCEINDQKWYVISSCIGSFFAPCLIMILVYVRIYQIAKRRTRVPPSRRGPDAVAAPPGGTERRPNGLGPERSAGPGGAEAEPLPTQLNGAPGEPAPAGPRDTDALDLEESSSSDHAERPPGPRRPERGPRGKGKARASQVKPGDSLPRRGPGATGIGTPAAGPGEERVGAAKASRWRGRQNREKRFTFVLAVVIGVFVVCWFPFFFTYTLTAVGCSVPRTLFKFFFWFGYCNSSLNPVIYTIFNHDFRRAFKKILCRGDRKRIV
Procedure: (§1) The interaction of the compounds of Formula (I) with α2C-adrenoceptor receptors was assessed in in vitro radioligand binding experiments. In general, a low concentration of a radioligand with a high binding affinity for a particular receptor or transporter is incubated with a sample of a tissue preparation enriched in a particular receptor or transporter or with a preparation of cells expressing cloned human receptors in a buffered medium. During the incubation, the radioligand binds to the receptor or transporter. When equilibrium of binding is reached, the receptor bound radioactivity is separated from the non-bound radioactivity, and the receptor- or transporter-bound activity is counted. The interaction of the test compounds with the receptor is assessed in competition binding experiments. Various concentrations of the test compound are added to the incubation mixture containing the receptor- or transporter preparation and the radioligand. The test compound in proportion to its binding affinity and its concentration inhibits binding of the radioligand. The radioligand used for […] receptor binding was [^3H]-raulwolscine.
(§2) CHO cells, stabile transfected with human adrenergic-α2A-, -α2B or α2C receptor cDNA, were cultured in Dulbecco's Modified Eagle's Medium (DMEM)/Nutrient mixture Ham's F12 (ratio 1:1)(Gibco, Gent-Belgium) supplemented with 10% heat inactivated fetal calf serum (Life Technologies, Merelbeke-Belgium) and antibiotics (100 IU/ml penicillin G, 100 μg/ml streptomycin sulphate, 110 μg/ml pyruvic acid and 100 μg/ml L-glutamine). One day before collection, cells were induced with 5 mM sodiumbutyrate. Upon 80-90% of confluence, cells were scraped in phosphate buffered saline without Ca^2+ and Mg^2+ and collected by centrifugation at 1500×g for 10 min. The cells were homogenised in Tris-HCl 50 mM using an Ultraturrax homogenizer and centrifuged for 10 min at 23,500×g. The pellet was washed once by resuspension and rehomogenization and the final pellet was resuspended in Tris-HCl, divided in 1 ml aliquots and stored at −70° C.
(§3) Membranes were thawed and re-homogenized in incubation buffer (glycylglycine 25 mM, pH 8.0). In a total volume of 500 μl, 2-10 μg protein was incubated with [^3H]raulwolscine (NET-722) (New England Nuclear, USA) (1 nM final concentration) with or without competitor for 60 min at 25° C. followed by rapid filtration over GF/B filter using a Filtermate196 harvester (Packard, Meriden, Conn.). Filters were rinsed extensively with ice-cold rinsing buffer (Tris-HCl 50 mM pH 7.4). Filter-bound radioactivity was determined by scintillation counting in a Topcount (Packard, Meriden, CT) and results were expressed as counts per minute (cpm). Non-specific binding was determined in the presence of 1 μM oxymetazoline for hα2A- and hα2B receptors and 1 μM spiroxatrine for hα2C receptors.
(§4) Data from assays in the presence of compound were calculated as a percentage of total binding measured in the absence of test compound. Inhibition curves, plotting percent of total binding versus the log value of the concentration of the test compound, were automatically generated, and sigmoidal inhibition curves were fitted using non-linear regression. The pIC50 values of test compounds were derived from individual curves.

[2] = target: T2, human adrenergic-α2B receptor (Homo sapiens, UniProt P18089); test: Radioligand binding experiment for α2B-adrenoceptor ([3H]-raulwolscine competition, CHO cell membranes); conditions: [3H]raulwolscine 1 nM, membranes of CHO cells transfected with human α2B receptor; for IC50: read-out: pIC50 α2B (converted)
T2 construct: expressed in transfected cells; membrane preparation
T2 sequence (P18089 1-450): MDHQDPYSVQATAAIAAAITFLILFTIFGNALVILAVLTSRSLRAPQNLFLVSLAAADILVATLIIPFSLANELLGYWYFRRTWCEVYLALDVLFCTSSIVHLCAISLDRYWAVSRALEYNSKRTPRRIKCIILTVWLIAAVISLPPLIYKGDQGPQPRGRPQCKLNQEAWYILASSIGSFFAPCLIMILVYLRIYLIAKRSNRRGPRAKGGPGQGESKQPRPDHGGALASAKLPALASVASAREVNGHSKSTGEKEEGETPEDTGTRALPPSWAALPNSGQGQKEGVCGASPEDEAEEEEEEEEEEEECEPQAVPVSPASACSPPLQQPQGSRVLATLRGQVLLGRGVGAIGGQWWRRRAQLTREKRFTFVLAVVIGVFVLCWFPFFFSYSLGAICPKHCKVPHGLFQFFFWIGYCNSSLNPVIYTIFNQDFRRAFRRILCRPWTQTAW
Procedure: as §1, §2, §3, §4

[3] = target: T3, human adrenergic-α2C receptor (Homo sapiens, UniProt P18825); test: Radioligand binding experiment for α2C-adrenoceptor ([3H]-raulwolscine competition, CHO cell membranes); conditions: [3H]raulwolscine 1 nM, membranes of CHO cells transfected with human α2C receptor; for IC50: read-out: pIC50 α2C (converted)
T3 construct: expressed in transfected cells; membrane preparation
T3 sequence (P18825 1-462): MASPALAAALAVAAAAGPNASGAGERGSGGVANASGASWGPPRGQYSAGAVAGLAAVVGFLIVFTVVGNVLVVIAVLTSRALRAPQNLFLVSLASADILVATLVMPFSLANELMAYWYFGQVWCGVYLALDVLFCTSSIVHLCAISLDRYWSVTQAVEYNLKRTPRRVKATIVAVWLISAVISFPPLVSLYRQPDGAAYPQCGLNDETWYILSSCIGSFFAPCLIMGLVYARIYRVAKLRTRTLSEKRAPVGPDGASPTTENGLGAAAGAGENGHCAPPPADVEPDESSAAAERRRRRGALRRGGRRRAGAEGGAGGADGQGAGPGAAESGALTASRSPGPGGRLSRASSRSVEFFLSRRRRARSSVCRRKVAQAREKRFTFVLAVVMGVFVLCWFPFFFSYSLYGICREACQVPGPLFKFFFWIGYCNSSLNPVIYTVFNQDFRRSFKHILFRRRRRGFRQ
Procedure: as §1, §2, §3, §4

SMILES | IC50 [1] [nM] | IC50 [2] [nM] | IC50 [3] [nM] | pIC50 α2B [2] | pIC50 α2C [3]
CN1CCCN(c2ccc(-n3cnn(CCNCCOc4ccccc4)c3=O)cc2)CC1 [compound 12] | 126 | 100 | 1.58 | – | –
CN1CCCN(Cc2ccc(-n3cnn(CCNCCOc4ccccc4)c3=O)cc2)CC1 [compound 13] | 63.1 | 63.1 | 1 | – | –
O=c1n(-c2ccc(CN3CCCC3)cc2)cnn1CCNCCOc1ccccc1 [compound 14] | 50.1 | 79.4 | 1 | – | –
O=c1n(CCN2CCCCC2)cnn1CCNCCOc1ccccc1 [compound 16] | 158 | 1580 | 10 | – | –
O=c1n(-c2ccc(CN3CCC(O)CC3)cc2)cnn1CCNCCOc1ccccc1 [compound 18] | 50.1 | 126 | 1.58 | – | –
CCOC(=O)C1CCN(Cc2ccc(-n3cnn(CCNCCOc4ccccc4)c3=O)cc2)CC1 [compound 19] | 63.1 | 251 | 3.16 | – | –
O=c1n(-c2ccc(N3CCC(N4CCCC4)CC3)cc2)cnn1CCNCCOc1ccccc1 [compound 20] | 100 | 100 | 3.98 | – | –
O=c1n(-c2ccc(CN3CCC(N4CCCC4)CC3)cc2)cnn1CCNCCOc1ccccc1 [compound 21] | 39.8 | 79.4 | 1.58 | – | –
O=c1n(-c2ccc(CN3CCOCC3)cc2)cnn1CCNCCOc1ccccc1 [compound 23] | 158 | 251 | 3.16 | – | –
O=c1n(-c2ccc(CN3CCOCC3)cc2)cnn1CCNCCOc1ccccc1 [compound 24] | 251 | – | 5.01 | 6.6 | –
O=c1n(-c2ccc(CN3CCc4ccccc4C3)cc2)cnn1CCNCCOc1ccccc1 [compound 27] | 25.1 | 79.4 | 1 | – | –
C/C(=C\c1ccccc1)CN1CCC(n2cnn(CCNCCOc3ccccc3)c2=O)CC1 [compound 28] | 126 | 200 | – | – | 8.4
C/C(=C\c1ccccc1)CN1CCC(n2cnn(CCNCCOc3ccccc3)c2=O)CC1 [compound 29] | 100 | 126 | 3.98 | – | –
C/C(=C\c1ccccc1)CN1CCC(n2cnn(CCN(C)CCOc3ccccc3)c2=O)CC1 [compound 30] | 398 | 200 | 15.8 | – | –
C/C(=C\c1ccccc1)CN1CCC(n2cnn(-c3ccc(NCCN(C)C)cc3)c2=O)CC1 [compound 31] | 50.1 | 25.1 | 12.6 | – | –
C/C(=C\c1ccccc1)CN1CCC(n2cnn(Cc3ccc(CN)cc3)c2=O)CC1 [compound 32] | 126 | 50.1 | 12.6 | – | –

SMILES | IC50 [1] [nM] | IC50 [2] [nM] | IC50 [3] [nM] | pIC50 α2B [2] | pIC50 α2C [3]
C/C(=C\c1ccccc1)CN1CCC(n2cnn(-c3ccc(CN)cc3)c2=O)CC1 [compound 33] | 15.8 | 63.1 | 15.8 | – | –
C/C(=C\c1ccccc1)CN1CCC(n2ncn(-c3ccc(CN)cc3)c2=O)CC1 [compound 34] | 39.8 | 50.1 | 10 | – | –
NCc1ccc(-n2cnn(C3CCN(CCOc4ccccc4)CC3)c2=O)cc1 [compound 36] | 39.8 | 79.4 | 12.6 | – | –
NCc1ccc(Cn2cnn(C3CCN(CCOc4ccccc4)CC3)c2=O)cc1 [compound 37] | 39.8 | 25.1 | 3.98 | – | –
CN(C)CCNc1ccc(-n2cnn(CC3CCN(CCOc4ccccc4)CC3)c2=O)cc1 [compound 38] | 25.1 | 3.98 | 1.58 | – | –
C/C(=C\c1ccccc1)CN1CCC(Cn2ncn(-c3ccc(NCCN(C)C)cc3)c2=O)CC1 [compound 39] | 63.1 | 7.94 | 10 | – | –
CN(C)CCNc1ccc(-n2cnn(CCC3CCN(CCOc4ccccc4)CC3)c2=O)cc1 [compound 40] | 3.98 | 0.631 | 0.794 | – | –
C/C(=C\c1ccccc1)CN1CCC(CCn2ncn(-c3ccc(NCCN(C)C)cc3)c2=O)CC1 [compound 41] | 6.31 | 1.26 | 1.58 | – | –
CN(CCNc1ccc(-n2cnn(CC3CCN(CCOc4ccccc4)CC3)c2=O)cc1)CC1CCCCC1 [compound 42] | 25.1 | 7.94 | 1 | – | –
CN(CCNc1ccc(-n2cnn(CC3CCN(CCOc4ccccc4)CC3)c2=O)cc1)Cc1ccccc1 [compound 43] | 25.1 | 6.31 | 1.58 | – | –
O=c1n(CCNCCOc2ccccc2)cnn1CCN1CCCCC1 [compound 44] | 126 | 3980 | 10 | – | –
O=c1n(CCNCCOc2ccccc2)cnn1-c1ccc(CN2CCOCC2)cc1 [compound 45] | 316 | 200 | 20 | – | –
CN(Cc1ccccc1)C(=O)Cn1cnn(CC2CCN(CCOc3ccccc3)CC2)c1=O [compound 46] | 126 | 158 | 6.31 | – | –
O=C(Cn1cnn(CC2CCN(CCOc3ccccc3)CC2)c1=O)Nc1ccc(F)cc1 [compound 47] | 79.4 | 39.8 | 3.98 | – | –
O=c1n(-c2ccc(NCc3ccc(F)cc3)cc2)cnn1CC1CCN(CCOc2ccccc2)CC1 [compound 48] | 200 | 25.1 | 3.16 | – | –
CN1CCN(CCCNc2ccc(-n3cnn(CC4CCN(CCOc5ccccc5)CC4)c3=O)cc2)CC1 [compound 49] | 63.1 | 6.31 | 3.98 | – | –
